Some test systems named below: Staph. 133; Pseudo-monas Walter; Staph. 1756; Enterco. 9790; Enteroc. 27101; Staph. FK422; Pseudo-monas Ellsworth.
What all share (experiment): MIC determination (MHK-Werte), comparison with Ciprofloxacin
Common to all, as to type: cell-based

The test system of another assay is E.coli Neumann. The settings on record: for MIC: Escherichia coli.

≈ marks a conversion by molar mass, not a printed value.

`CCOC(=O)c1cn(C2CC2)c2cc(-c3ccccc3)c(F)cc2c1=O` [Beispiel 1, 1-Cyclopropyl-6-fluor-1,4-dihydro-4-oxo-7-phenyl-3-chinolincarbonsäure-ethylester]: the MHK-Werte in the assay with Staph. 133 is on record as 0,062 µg/ml; in the assay with Pseudo-monas Walter, 0,5 µg/ml; in the assay with Staph. 1756, 0,062 µg/ml; in the assay with Enterco. 9790, 0,125 µg/ml; with Enteroc. 27101, 0,062 µg/ml; in the assay with Staph. FK422 it was ≤0,015 µg/ml. Besides, the MHK-Werte is reported as 0,062 µg/ml in the assay on E.coli Neumann and 0,25 µg/ml in the assay on Pseudo-monas Ellsworth.
In general, MIC refers to the lowest concentration found to suppress growth. For `O=C(O)c1cn(C2CC2)c2cc(-c3ccc4ccccc4c3)c(F)cc2c1=O` [Beispiel 14], the MIC against Pseudo-monas Walter turned out to be 1 µg/mL (≈ 2.68 µM); with E.coli Neumann, 0.062 µg/mL (≈ 0.166 µM); in the assay on Pseudo-monas Ellsworth it was 0.25 µg/mL (≈ 0.67 µM).
Consider `O=C(O)c1cn(C2CC2)c2cc(-c3cccnc3)c(F)cc2c1=O` [Beispiel 16], for which the values for the MIC against Pseudo-monas Walter and against E.coli Neumann were 0.5 µg/mL (≈ 1.54 µM) and no more than 0.015 µg/mL, respectively.
In the assay with E.coli Neumann, `NCc1ccc(-c2cc3c(cc2F)c(=O)c(C(=O)O)cn3C2CC2)cc1` [Beispiel 20, 7-(4-Aminomethylphenyl)-1-cyclopropyl-6-fluor-1,4-dihydro-4-oxo-3-chinolincarbonsäure] had an MIC of no more than 0.015 µg/mL.
Take `O=C(O)c1cn(C2CC2)c2cc(N3CCNCC3)c(F)cc2c1=O` [Ciprofloxacin, reference compound]: the MIC in the assay with Staph. 133, in the assay with Pseudo-monas Walter, against Staph. 1756, in the assay on Enterco. 9790, against Enteroc. 27101 and in the assay on Staph. FK422 was 0.25 µg/mL (≈ 0.754 µM) throughout. For the same compound, the MIC in the assay with E.coli Neumann was no more than 0.015 µg/mL.

For the origin of these results see patent publication EP0343398A2, “7-Substituted quinolone- and naphthyridinecarboxylic acid derivatives” (BAYER AG, priority 1988, dated 1989).
